Here are results for three molecules from patent US5910435A, “Method of folding proteins with synthetic dithiol catalysts” (Wisconsin Alumni Research Foundation, priority 1996, dated 1999).

For data set [1] the following is noted: cited from earlier work.
For data set [2], the system named is pdilΔ Saccharomyces cerevisiae. Description: Rescue of PDI-deficient yeast on 5-FOA plates. It is filed as cell-based. The settings on record: for survival of colonies of PDI-deficient yeast after selection against the PDI plasmid: minimal medium plates containing 5-FOA, BMC at 10 mM, DTT by the same procedure. How it is done: The ability of a synthetic diol protein catalyst to catalyze protein folding in vivo was tested by its ability to replace the function of PDI in a eukaryotic cell. The cells used for this procedure were pdilΔ Saccharomyces cerevisiae, which have a deletion in their PDI1 gene rendering the expressed enzyme dysfunctional. The PDI1 gene is an essential gene for survival of S. cerevisiae. To enable these cells to live, the cells contain a plasmid that directs expression of S. cerevisiae PDI. This plasmid also directs the expression of the […] gene product. These cells were streaked onto plates of minimal medium containing 5-fluoroorotic acid (5-FOA) which makes the URA3 gene product toxic to S. cerevisiae. Accordingly, this selects against presence of the plasmid and surviving cells will have neither the plasmid nor PDI.
This test was run with plates containing 5-FOA which also contained 0 or 10 mM BMC. […] No colonies survived on the plate without BMC.
Cells from the colonies rescued with BMC were then plated onto rich medium without BMC.
This same procedure was repeated with the disulfide bond reducing agent dithiothrietol (DTT). DTT is a low molecular weight dithiol with a higher pKa and a lower E°' than BMC.

The test system of the next data set is scrambled ribonuclease A. As to the kind of experiment: In vitro unscrambling of non-native disulfide bonds (regain of ribonucleolytic activity). It counts as biochemical. The settings on record: 0, 20 or 200 μM; 1 mM reduced and 0.2 mM oxidized glutathione, pH 7.6, 30° C.; FIG. 5. As to the method: Disulfide bonds form readily in an oxidizing environment. These disulfide bonds may not, however, be the ones that exist in the native, active conformation of a protein. The desirable property in a synthetic protein foldase is the ability to catalyze the unscrambling of non-native disulfide bonds. The ability of BMC to catalyze the unscrambling of non-native disulfide bonds in vitro was assayed by a method similar to that reported previously by our group and others. Laboissiere et al, Protein Express. Purif. 6:700-706 (1995).
This assay is based on the disulfide bonds in ribonuclease A, a well-characterized enzyme. In its native, enzymatically active conformation, ribonuclease A has eight cysteine residues which participate in four specific disulfide bonds. […]
In the assay, BMC was tested for its ability to catalyze the regain of enzymatic activity in scrambled ribonuclease A. This regain in activity can only occur by the isomerization (or unscrambling) of the non-native disulfide bonds. […] In this test, the aliquot was added to 500 μL of 100 mM MES-HCl buffer, pH 6.0, containing 100 mM NaCl and 10 mM poly(C) RNA, which is a substrate for ribonuclease A. Ribonucleolytic activity was monitored by following the change in absorbance at 238 nm which accompanies the cleavage of poly(C) by enzymatically active ribonuclease A.

The test system of a further data set is PDI deficient yeast. As to the kind of experiment: Complementation of PDI-deficient yeast with thioredoxin and its active-site mutants. It counts as cell-based. The text has this:
Because the proper folding of proteins is of significant scientific and commercial interest, systems have been designed to help to study protein folding. One such system is based on a yeast cells which lack a nuclear gene for the PDI enzyme, and are therefore incapable of catalyzing the formation of the proper disulfide bonds required for biological activity of proteins. Such yeast cells can be grown so long as they harbor a plasmid that produces PDI, but the cells promptly expire when the plasmid PDI is removed. The ability of mutant, altered, or engineered forms of PDI to rescue the PDI-deficient yeast cultures from death is a test of the suitability of such altered isoforms to properly fold proteins. Investigation into the function of PDI, and its use in the unscrambling of non-native disulfide bonds, is described by Laboissiere et al., J. Biol. Chem. 270:47:28006-28009 (1995). Based on this test system, it has been possible to determine that the motif for PDI activity consists of a particular amino acid domain. This domain is shared in common with the reducing bacterial enzyme thioredoxin. The domain has the consensus sequence Cys-X-X-Cys (SEQ ID NO: 1 or C-X-X-C, where X is an amino acid, Edman, Nature 317:267-270 (1985).
That study was conducted using mutant PDI deficient yeast. […]

Take `O[C@@H](CS)[C@@H](O)CS` (relative stereo) [DTT, dithiothrietol, reference compound]: the “pKa relative to BMC” value in data set [1] was “higher”. In data set [2], the “survival of colonies of PDI-deficient yeast after selection against the PDI plasmid” value was “no yeast colonies could be rescued”.

Take `O=C(CS)NC1CCCCC1NC(=O)CS` (stereo not shown) [BMC, N,N'-bis(2-mercaptoacetyl)-1,2-diaminocyclohexane]: in data set [2] (5-FOA plate with 10 mM BMC), the “time until surviving colonies appeared” value worked out at 5 days. Further, in data set [2], the “survival of colonies of PDI-deficient yeast after selection against the PDI plasmid” value is reported as “Surviving colonies appeared”. Also, in the data set on scrambled ribonuclease A, the “catalysis of the regain of biological activity of a protein with scrambled disulfide bonds” value is reported as “significant catalysis” and the “total yield of active protein, in the presence versus in the absence of the catalyst” value is recorded as “significantly greater”.

As to “thioredoxin: 12 kilodalton protein from E. coli, prokaryotic functional homolog of PDI, active site Cys-Gly-Pro-Cys”, the “complementation (rescue) of PDI deficient yeast” value with PDI deficient yeast is on record as “failed”.
